From PubChem BioAssay (NCI)
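These data come from cells grown in 96-well plates and exposed to compound for 48 hours at five concentrations. At the GI50, growth is halved. TGI marks complete inhibition of growth.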

Experiments:
Experiment in all cases: NCI-60 cell line screen, 48 h
KM20L2 colon = tested on: KM20L2 colon
SF-268 CNS = tested on: SF-268 CNS
SNB-75 CNS = tested on: SNB-75 CNS
A549 NSCLC = tested on: A549 NSCLC
HOP-18 NSCLC = tested on: HOP-18 NSCLC
U251 CNS = tested on: U251 CNS
NCI-H522 lung = tested on: NCI-H522 lung
SF-539 CNS = tested on: SF-539 CNS
OVCAR-3 ovarian = tested on: OVCAR-3 ovarian
SNB-78 CNS = tested on: SNB-78 CNS
HCT-116 colon = tested on: HCT-116 colon
MDA-N = tested on: MDA-N

SMILES	TGI (KM20L2 colon)	TGI (SF-268 CNS)	TGI (SNB-75 CNS)	TGI (A549 NSCLC)	TGI (HOP-18 NSCLC)	TGI (U251 CNS)	TGI (NCI-H522 lung)	TGI (SF-539 CNS)	TGI (OVCAR-3 ovarian)	TGI (SNB-78 CNS)	TGI (HCT-116 colon)	TGI (MDA-N)	GI50 (SNB-75 CNS)	GI50 (U251 CNS)	GI50 (NCI-H522 lung)	GI50 (SF-539 CNS)	GI50 (OVCAR-3 ovarian)
CC(C)N1CC2CC(CN(C(=O)c3ccccc3)C2)C1	> 100 µM	> 100 µM	> 100 µM	> 100 µM	> 100 µM	> 100 µM	> 100 µM	> 100 µM	> 100 µM	–	–	–	–	–	–	–	–
COC(=O)C1=C(C(=O)OC)SC(=CC#CC=C2SC(C(=O)OC)=C(C(=O)OC)S2)S1	71.6 µM	> 60.1 µM	19.3 µM	> 100 µM	45.9 µM	33.1 µM	54.8 µM	4.86 µM	17 µM	48.6 µM	32.3 µM	–	–	–	–	–	–
CSc1cc(=O)n2c3ccccc3c3ccnc1c32	> 100 µM	> 75.5 µM	> 94.3 µM	> 100 µM	98.2 µM	> 100 µM	> 100 µM	> 71.4 µM	> 100 µM	> 100 µM	> 100 µM	–	–	–	–	–	–
CCn1c2ccc(C(=O)CCCN3CCCCC3)cc2c2cc(C(=O)CCCN3CCCCC3)ccc21	–	18.6 µM	8.26 µM	3.86 µM	–	4.73 µM	4.05 µM	3.37 µM	5.3 µM	–	10.8 µM	5.7 µM	–	–	–	–	–
CCc1c(CNc2ccc(C(=O)NC(CC(=O)O)C(=O)O)cc2)ccc2nc(N)nc(N)c12 (configuration not stated)	–	> 1000 µM	> 1000 µM	> 1000 µM	–	> 1000 µM	> 1000 µM	> 1000 µM	> 1000 µM	–	> 1000 µM	> 1000 µM	115 µM	372 µM	1.09 µM	0.285 µM	52.8 µM
COc1ccc(OC2OC(CO)C(OCc3ccccc3)C(OCc3ccccc3)C2OCc2ccccc2)cc1 (configuration not stated)	–	> 100 µM	> 100 µM	> 100 µM	–	> 100 µM	> 100 µM	> 100 µM	> 100 µM	–	> 100 µM	> 100 µM	–	–	–	–	–
CC1C(NNc2ccccc2)Oc2cc3c(cc2C1c1ccccc1O)OCO3 (configuration not stated)	–	32.6 µM	23.6 µM	15.2 µM	–	22.4 µM	14.2 µM	4.56 µM	24.1 µM	–	18.7 µM	18.4 µM	–	–	–	–	–
O=P(O)(O)c1ccccc1Oc1ccccc1	–	> 100 µM	> 100 µM	> 100 µM	–	> 100 µM	> 100 µM	> 100 µM	> 100 µM	–	> 100 µM	> 100 µM	–	–	–	–	–
CCCCSc1nsc(N(C(=O)c2ccccc2)C(=O)c2ccccc2)n1	–	> 100 µM	73.8 µM	> 100 µM	–	> 100 µM	69.5 µM	64.3 µM	61.1 µM	–	92.6 µM	> 100 µM	–	–	–	–	–
C=C(C)OCOCCOC	–	> 100 µM	> 100 µM	> 100 µM	–	> 100 µM	> 100 µM	> 100 µM	> 100 µM	–	> 100 µM	> 100 µM	–	–	–	–	–
O=C(O)c1cccc2cccc(-c3cccc4cccc(C(=O)O)c34)c12	–	> 100 µM	> 100 µM	> 100 µM	–	> 100 µM	> 100 µM	> 100 µM	> 100 µM	–	> 100 µM	> 100 µM	–	–	–	–	–
Cn1c(=O)c(-c2ccccc2)c(O)c2ccccc21	–	> 100 µM	> 100 µM	> 100 µM	–	> 100 µM	> 100 µM	> 100 µM	> 100 µM	–	> 100 µM	> 100 µM	–	–	–	–	–
CC(C)c1cccc(C(C)C)c1NC(=O)/C(CC(=O)CC(c1ccccc1)c1c(O)c2ccccc2oc1=O)=N/O (configuration not stated)	–	> 100 µM	> 100 µM	> 100 µM	–	> 100 µM	> 100 µM	> 100 µM	> 100 µM	–	> 100 µM	> 100 µM	–	–	–	–	–
CCOc1ccc(Nc2nc(N)nc(N)c2N)cc1	–	31.1 µM	70.5 µM	> 100 µM	–	66 µM	52.1 µM	46.3 µM	> 100 µM	–	> 100 µM	13.3 µM	–	–	–	–	–
COc1ccc(/C=c2\s/c(=C3/SC(=S)N(c4ccccc4)C3=O)n(-c3ccccc3)c2=O)cc1	–	26.9 µM	21.4 µM	> 100 µM	–	> 100 µM	> 100 µM	> 100 µM	> 100 µM	–	> 100 µM	> 100 µM	–	–	–	–	–
CCC(O)(Cc1ccc(OC)cc1)c1ccc(OC)cc1 (configuration not stated)	–	> 100 µM	> 100 µM	> 100 µM	–	> 100 µM	> 100 µM	> 100 µM	> 100 µM	–	> 100 µM	> 100 µM	–	–	–	–	–

SMILES	TGI (KM20L2 colon)	TGI (SF-268 CNS)	TGI (SNB-75 CNS)	TGI (A549 NSCLC)	TGI (HOP-18 NSCLC)	TGI (U251 CNS)	TGI (NCI-H522 lung)	TGI (SF-539 CNS)	TGI (OVCAR-3 ovarian)	TGI (SNB-78 CNS)	TGI (HCT-116 colon)	TGI (MDA-N)	GI50 (SNB-75 CNS)	GI50 (U251 CNS)	GI50 (NCI-H522 lung)	GI50 (SF-539 CNS)	GI50 (OVCAR-3 ovarian)
CC1CCC2(NC1)OC1CC3C4CC=C5CC(OC6OC(CO)C(OC7OC(C)C(O)C(O)C7O)C(O)C6OC6OC(C)C(O)C(O)C6O)CCC5(C)C4CCC3(C)C1C2C (configuration not stated)	–	4.05 µM	5.87 µM	9.59 µM	–	9.37 µM	3.43 µM	8.75 µM	4.09 µM	–	4.91 µM	4.99 µM	–	–	–	–	–
CCOC(=O)C1(C#N)C(c2ccccc2)CC(O)(c2ccc(Cl)cc2)C(C(=O)c2ccc(Cl)cc2)C1c1ccccc1 (configuration not stated)	> 100 µM	> 100 µM	48.9 µM	> 100 µM	> 100 µM	–	> 100 µM	–	> 100 µM	> 100 µM	> 100 µM	–	–	–	–	–	–
CN1C(=O)N(C)C(O)C(Cl)(Br)C1=O (configuration not stated)	–	> 100 µM	> 100 µM	> 100 µM	–	> 100 µM	> 100 µM	> 100 µM	> 100 µM	–	> 100 µM	> 100 µM	–	–	–	–	–
CCCCC1=C(C(=O)N2CCOCC2)C2(OCCO2)C1=O	–	86.7 µM	> 100 µM	87.7 µM	–	88.3 µM	32.6 µM	46.5 µM	39.7 µM	–	48.6 µM	71.2 µM	–	–	–	–	–
CS(=O)(=O)CSCSSCS(C)(=O)=O	> 100 µM	77.5 µM	> 100 µM	> 100 µM	> 100 µM	> 100 µM	34 µM	53.5 µM	> 100 µM	> 100 µM	> 100 µM	–	–	–	–	–	–
OCCOCn1nncc1Cn1ncc2c(SCc3ccccc3)ncnc21	–	> 100 µM	> 100 µM	> 100 µM	–	> 100 µM	> 100 µM	> 100 µM	> 100 µM	–	> 100 µM	> 100 µM	–	–	–	–	–
Cc1cc(C)c(S(=O)(=O)N(CCCN)OCCCON(CCCN)S(=O)(=O)c2c(C)cc(C)cc2C)c(C)c1	–	2.8 µM	3.29 µM	3.3 µM	–	3.08 µM	2.88 µM	3.77 µM	4.26 µM	–	3.17 µM	3.51 µM	–	–	–	–	–
CCOC(=O)c1s/c(=N\Nc2nc3ccccc3cc2C2OCCO2)n(Cc2ccccc2)c1C	> 100 µM	> 100 µM	> 100 µM	> 100 µM	> 100 µM	> 100 µM	> 100 µM	> 100 µM	> 100 µM	> 100 µM	> 100 µM	–	–	–	–	–	–
O=c1[nH]c2nc3ccccc3nc2[nH]c1=O	–	> 100 µM	> 100 µM	> 100 µM	–	> 100 µM	> 100 µM	> 100 µM	> 100 µM	–	> 100 µM	> 100 µM	–	–	–	–	–
C[C@]12CCC(=O)[C@@H](CCC3=CC(=O)C=CC3=O)[C@@H]1CCC2=O	–	39.5 µM	25.8 µM	> 54.5 µM	–	> 47.3 µM	5.64 µM	35.7 µM	36 µM	–	> 50.5 µM	> 52.8 µM	–	–	–	–	–
CC(C)(C)OC(=O)NC(Cc1ccccc1)NC(=O)NC(=O)OCc1ccccc1 (configuration not stated)	–	> 100 µM	73.2 µM	> 100 µM	–	> 100 µM	> 100 µM	60.8 µM	> 100 µM	–	> 100 µM	> 100 µM	–	–	–	–	–
COc1cc(CC(C)NC(C)=O)cc(OC)c1 (configuration not stated)	–	> 100 µM	> 100 µM	> 100 µM	–	> 100 µM	> 100 µM	> 100 µM	> 100 µM	–	> 100 µM	> 100 µM	–	–	–	–	–
COc1ccccc1C1Nn2c(nc3ccccc3c2=O)N1c1ccc(C)cc1 (configuration not stated)	–	25.1 µM	30.5 µM	19.7 µM	–	6.68 µM	28.5 µM	12.1 µM	18.6 µM	–	16 µM	20.9 µM	–	–	–	–	–
COC(=O)[C@@H]1CCCCC[C@H]2C(CO)=C(C)C(=O)C12 (some centres not stated)	> 100 µM	> 100 µM	> 100 µM	> 100 µM	> 100 µM	> 100 µM	> 100 µM	> 100 µM	–	> 100 µM	> 100 µM	–	–	–	–	–	–
C/C=C(/C)C(=O)OC1CC(C)[C@H]2CC(=O)C(C)=C2CC1C(C)(C)OC(C)=O (some centres not stated)	–	> 100 µM	> 100 µM	> 100 µM	–	> 100 µM	53 µM	41 µM	45.4 µM	–	40.7 µM	> 100 µM	–	–	–	–	–
NC(=O)c1csc(C2(O)COC(CO)C2O)n1 (configuration not stated)	–	> 100 µM	> 100 µM	> 100 µM	–	> 100 µM	> 100 µM	> 100 µM	> 100 µM	–	> 100 µM	> 100 µM	–	–	–	–	–
